Reference: paper PMC9005681, “Use of AD Informer Set compounds to explore validity of novel targets in Alzheimer's disease pathology” (Alzheimer's & Dementia : Translational Research & Clinical …, 2022)

Legend:
[1] = biological target: T1, cloned human or rodent CNS receptors, channels, and transporters (PDSP panel) (Homo sapiens, UniProt P41145); assay: PDSP GPCR panel primary binding assays at 10 μM; settings: primary assay
T1 construct: expressed in transfected cells
Protocol: (§1) GPCR panel: Screening against the receptors within the PDSP panel offers an assessment of off-target pharmacological activity at cloned human or rodent CNS receptors, channels, and transporters that could confound CNS-related phenotypes. A total of 46–47 primary binding assays were run in quadruplicate on these compounds at 10 μM, with follow-up secondary binding assays in 11-point dose-response in triplicate for select compounds versus select receptors. Secondary binding assays were executed for all receptors where test compound displaced an average of >50% of radio-labeled standard ligand. As an exception, no secondary assays were carried out for H3, PBR, or GABAA. […]

[2] = biological target: T2, cloned human or rodent CNS receptors, channels, and transporters (PDSP panel) (Homo sapiens, UniProt P46098); assay: PDSP GPCR panel primary binding assays at 10 μM; settings: primary assay
T2 construct: expressed in transfected cells
T2 sequence (P46098 24-478): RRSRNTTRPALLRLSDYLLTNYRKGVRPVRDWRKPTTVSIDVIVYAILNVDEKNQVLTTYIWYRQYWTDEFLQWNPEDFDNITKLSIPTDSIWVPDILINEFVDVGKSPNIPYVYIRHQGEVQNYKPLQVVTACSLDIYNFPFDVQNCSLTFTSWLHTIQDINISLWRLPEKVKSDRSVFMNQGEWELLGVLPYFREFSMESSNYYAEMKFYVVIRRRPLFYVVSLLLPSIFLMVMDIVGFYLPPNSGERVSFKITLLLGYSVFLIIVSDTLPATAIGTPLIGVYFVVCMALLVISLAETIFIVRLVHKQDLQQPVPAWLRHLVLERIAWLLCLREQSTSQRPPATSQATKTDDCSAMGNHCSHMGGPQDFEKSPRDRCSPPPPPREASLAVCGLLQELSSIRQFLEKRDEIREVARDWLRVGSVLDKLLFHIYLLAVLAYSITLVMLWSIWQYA
Protocol: as §1

[3] = biological target: T3, cloned human or rodent CNS receptors, channels, and transporters (PDSP panel) (Homo sapiens, UniProt P11229); assay: PDSP GPCR panel primary binding assays at 10 μM; settings: M1, primary assay; for Mean %: mean inhibition; for Inhibition 1: replicate 1; for Inhibition 2: replicate 2; for Inhibition 3: replicate 3; for Inhibition 4: replicate 4
T3 construct: expressed in transfected cells
T3 sequence (P11229 1-460): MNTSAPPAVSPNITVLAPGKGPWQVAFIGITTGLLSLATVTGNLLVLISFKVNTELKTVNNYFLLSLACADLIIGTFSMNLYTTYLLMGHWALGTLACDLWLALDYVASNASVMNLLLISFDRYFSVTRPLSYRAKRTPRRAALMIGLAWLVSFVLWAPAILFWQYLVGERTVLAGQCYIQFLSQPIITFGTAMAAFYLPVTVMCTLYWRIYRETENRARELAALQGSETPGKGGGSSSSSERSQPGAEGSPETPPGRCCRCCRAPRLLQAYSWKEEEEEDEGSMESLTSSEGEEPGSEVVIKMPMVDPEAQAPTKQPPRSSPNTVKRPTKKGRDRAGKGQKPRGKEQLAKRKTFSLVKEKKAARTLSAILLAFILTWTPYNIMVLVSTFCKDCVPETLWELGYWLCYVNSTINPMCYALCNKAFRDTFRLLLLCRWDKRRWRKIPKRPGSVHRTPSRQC
Protocol: as §1

[4] = biological target: T4, cloned human or rodent CNS receptors, channels, and transporters (PDSP panel) (Homo sapiens, UniProt P28223); assay: PDSP GPCR panel primary binding assays at 10 μM; settings: primary assay
T4 construct: expressed in transfected cells
T4 sequence (P28223 whole entry): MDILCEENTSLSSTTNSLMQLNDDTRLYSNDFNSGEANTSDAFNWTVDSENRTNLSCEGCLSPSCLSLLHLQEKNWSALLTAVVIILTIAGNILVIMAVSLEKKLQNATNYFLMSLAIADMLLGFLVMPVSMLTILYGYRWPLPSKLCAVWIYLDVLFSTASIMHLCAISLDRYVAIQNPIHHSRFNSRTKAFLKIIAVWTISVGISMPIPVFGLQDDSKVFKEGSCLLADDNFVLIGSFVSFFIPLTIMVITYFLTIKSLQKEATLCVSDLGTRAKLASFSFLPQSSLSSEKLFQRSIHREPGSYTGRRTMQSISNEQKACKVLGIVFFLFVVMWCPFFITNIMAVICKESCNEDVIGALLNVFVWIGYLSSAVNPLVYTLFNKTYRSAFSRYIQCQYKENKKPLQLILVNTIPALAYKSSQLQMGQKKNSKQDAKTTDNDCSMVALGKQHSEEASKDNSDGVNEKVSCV
Protocol: as §1

[5] = biological target: T5, cloned human or rodent CNS receptors, channels, and transporters (PDSP panel) (Homo sapiens, UniProt P34969); assay: PDSP GPCR panel primary binding assays at 10 μM; settings: primary assay
T5 construct: expressed in transfected cells
T5 sequence (P34969 whole entry): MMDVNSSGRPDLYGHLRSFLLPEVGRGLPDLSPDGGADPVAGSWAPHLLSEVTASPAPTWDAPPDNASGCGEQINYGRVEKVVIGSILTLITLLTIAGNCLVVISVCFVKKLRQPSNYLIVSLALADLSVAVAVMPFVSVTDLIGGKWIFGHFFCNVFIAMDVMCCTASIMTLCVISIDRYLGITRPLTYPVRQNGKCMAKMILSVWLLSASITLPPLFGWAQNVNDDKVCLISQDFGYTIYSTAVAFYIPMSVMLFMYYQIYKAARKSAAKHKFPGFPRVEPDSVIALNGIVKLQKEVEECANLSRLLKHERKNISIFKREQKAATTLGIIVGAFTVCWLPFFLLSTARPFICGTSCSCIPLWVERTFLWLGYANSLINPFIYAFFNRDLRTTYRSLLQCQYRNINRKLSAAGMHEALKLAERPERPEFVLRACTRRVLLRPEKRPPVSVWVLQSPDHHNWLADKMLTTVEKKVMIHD
Protocol: as §1

[6] = biological target: T6, cloned human or rodent CNS receptors, channels, and transporters (PDSP panel) (Homo sapiens, UniProt P21917); assay: PDSP GPCR panel primary binding assays at 10 μM; settings: primary assay
T6 construct: expressed in transfected cells
T6 sequence (P21917 1-419): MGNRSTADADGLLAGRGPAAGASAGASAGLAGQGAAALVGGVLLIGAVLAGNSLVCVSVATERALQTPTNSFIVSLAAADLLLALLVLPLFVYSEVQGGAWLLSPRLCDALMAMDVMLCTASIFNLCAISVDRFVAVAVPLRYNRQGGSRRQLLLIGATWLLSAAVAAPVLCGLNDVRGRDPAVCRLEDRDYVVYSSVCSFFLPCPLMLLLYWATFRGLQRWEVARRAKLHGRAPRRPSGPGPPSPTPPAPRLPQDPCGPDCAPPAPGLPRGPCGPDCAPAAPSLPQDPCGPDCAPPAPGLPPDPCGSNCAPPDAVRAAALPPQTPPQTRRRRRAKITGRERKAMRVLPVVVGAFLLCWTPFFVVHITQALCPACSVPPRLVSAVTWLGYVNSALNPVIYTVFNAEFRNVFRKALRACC
Protocol: as §1

[7] = biological target: T7, cloned human or rodent CNS receptors, channels, and transporters (PDSP panel) (Homo sapiens, UniProt P25021); assay: PDSP GPCR panel primary binding assays at 10 μM; settings: H2, primary assay; for Mean %: mean inhibition; for Inhibition 1: replicate 1; for Inhibition 2: replicate 2; for Inhibition 3: replicate 3; for Inhibition 4: replicate 4
T7 construct: expressed in transfected cells
T7 sequence (P25021 whole entry): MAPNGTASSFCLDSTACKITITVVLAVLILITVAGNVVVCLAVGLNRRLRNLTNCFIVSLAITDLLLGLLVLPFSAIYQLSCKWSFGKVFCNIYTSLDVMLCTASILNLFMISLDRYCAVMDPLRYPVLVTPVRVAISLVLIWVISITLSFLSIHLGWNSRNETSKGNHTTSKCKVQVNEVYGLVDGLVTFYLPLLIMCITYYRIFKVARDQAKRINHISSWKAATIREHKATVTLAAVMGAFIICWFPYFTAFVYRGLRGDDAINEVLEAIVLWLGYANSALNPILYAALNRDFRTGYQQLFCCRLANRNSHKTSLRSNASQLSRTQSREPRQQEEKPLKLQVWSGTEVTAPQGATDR
Protocol: as §1

cellular system = tested on: cellular system; parameters: method as in column References for potency and dosing (the 5th table c13); settings: published data; References for potency and dosing; cited from earlier work

T1 sequence (P41145 whole entry): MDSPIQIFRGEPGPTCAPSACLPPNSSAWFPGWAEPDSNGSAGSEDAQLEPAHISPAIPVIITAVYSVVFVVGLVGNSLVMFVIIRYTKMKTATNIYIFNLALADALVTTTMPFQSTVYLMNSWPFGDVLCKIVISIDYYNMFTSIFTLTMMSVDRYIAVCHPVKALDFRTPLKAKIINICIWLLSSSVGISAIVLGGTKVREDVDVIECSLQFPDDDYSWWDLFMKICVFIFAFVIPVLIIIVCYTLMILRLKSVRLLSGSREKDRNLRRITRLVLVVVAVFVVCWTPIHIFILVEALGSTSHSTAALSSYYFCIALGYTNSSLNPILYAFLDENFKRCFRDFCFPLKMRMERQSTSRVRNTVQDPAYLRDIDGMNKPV

With O=c1oc2ccccc2cc1-c1cn2cc(Cc3ccc(F)cc3)sc2n1 [UNC10302680A, iMDK] the “Inhibition 1” value ([1]; Receptor KOR, 10 μM) was -23.4%, the “Inhibition 2” value ([1]; Receptor KOR, 10 μM) was -19.7% and the “Inhibition 3” value ([1]; Receptor KOR, 10 μM) was -5.6%. For the same molecule, the “Inhibition 4” value ([1]; Receptor KOR, 10 μM) was -21.38%, the Mean % ([1]; Receptor KOR, 10 μM, mean of Inhibition 1-4) was -17.52% and the “Inhibition 1” value ([2]; Receptor 5-HT3, 10 μM) was 1.94%. For the same molecule, the “Inhibition 2” value ([2]; Receptor 5-HT3, 10 μM) was 26.27%, the “Inhibition 3” value ([2]; Receptor 5-HT3, 10 μM) was 17.25% and the “Inhibition 4” value ([2]; Receptor 5-HT3, 10 μM) was 14.61%. The Mean % ([2]; Receptor 5-HT3, 10 μM, mean of Inhibition 1-4) was 15.02%, the Mean % [3] was 7.01% and the “Inhibition 1” value [3] was 16.84%. The “Inhibition 2” value [3] was 2.54%, the “Inhibition 3” value [3] was 0.66% and the “Inhibition 4” value [3] was 8%. For the same molecule, the “Inhibition 1” value ([4]; Receptor 5-HT2A, 10 μM) was 12.31%, the “Inhibition 2” value ([4]; Receptor 5-HT2A, 10 μM) was -11.86% and the “Inhibition 3” value ([4]; Receptor 5-HT2A, 10 μM) was -8.41%. For the same molecule, the “Inhibition 4” value ([4]; Receptor 5-HT2A, 10 μM) was 9.68%, the Mean % ([4]; Receptor 5-HT2A, 10 μM, mean of Inhibition 1-4) was 0.43% and the “Inhibition 1” value ([5]; Receptor 5-HT7A, 10 μM) was 13.87%. For the same molecule, the “Inhibition 2” value ([5]; Receptor 5-HT7A, 10 μM) was 2.87%, the “Inhibition 3” value ([5]; Receptor 5-HT7A, 10 μM) was -0.54% and the “Inhibition 4” value ([5]; Receptor 5-HT7A, 10 μM) was 21.31%. For the same molecule, the Mean % ([5]; Receptor 5-HT7A, 10 μM, mean of Inhibition 1-4) was 9.38%, the “Inhibition 1” value ([6]; Receptor D4, 10 μM) was -9.94% and the “Inhibition 2” value ([6]; Receptor D4, 10 μM) was -4.88%. For the same molecule, the “Inhibition 3” value ([6]; Receptor D4, 10 μM) was -6.5%, the “Inhibition 4” value ([6]; Receptor D4, 10 μM) was 11.95% and the Mean % ([6]; Receptor D4, 10 μM, mean of Inhibition 1-4) was -2.34%. For the same molecule, the Mean % [7] was 13.61%, the “Inhibition 1” value [7] was 32.28% and the “Inhibition 2” value [7] was 15.29%. For the same molecule, the “Inhibition 3” value [7] was 9.61%, the “Inhibition 4” value [7] was -2.74% and the “Reported as cell active (<10 μM)” value (cellular system) was “Y (Published data supports that the compound is active in a cellular system when dosed at 10 μM (Y/N))”.

With CCC(=O)N1CCC(NC(=O)Nc2ccc(OC(F)(F)F)cc2)CC1 [UNC10302681A, TPPU] the Mean % ([1]; KOR, mean inhibition) was -14.38%, the “Inhibition 1” value ([1]; KOR, replicate 1) was -11.64% and the “Inhibition 2” value ([1]; KOR, replicate 2) was -17.46%. For the same molecule, the “Inhibition 3” value ([1]; KOR, replicate 3) was -11.75%, the “Inhibition 4” value ([1]; KOR, replicate 4) was -16.68% and the Mean % ([2]; 5-HT3, mean inhibition) was 17.23%. The “Inhibition 1” value ([2]; 5-HT3, replicate 1) was 6.76%, the “Inhibition 2” value ([2]; 5-HT3, replicate 2) was 16.16% and the “Inhibition 3” value ([2]; 5-HT3, replicate 3) was 12.2%. For the same molecule, the “Inhibition 4” value ([2]; 5-HT3, replicate 4) was 33.8%, the Mean % [3] was -5.22% and the “Inhibition 1” value [3] was 4.61%. The “Inhibition 2” value [3] was -16.27%, the “Inhibition 3” value [3] was -3.29% and the “Inhibition 4” value [3] was -5.93%. For the same molecule, the Mean % ([4]; 5-HT2A, mean inhibition) was -2.37%, the “Inhibition 1” value ([4]; 5-HT2A, replicate 1) was 0.31% and the “Inhibition 2” value ([4]; 5-HT2A, replicate 2) was -4.96%. The “Inhibition 3” value ([4]; 5-HT2A, replicate 3) was -8.74%, the “Inhibition 4” value ([4]; 5-HT2A, replicate 4) was 3.92% and the Mean % ([5]; 5-HT7A, mean inhibition) was 28.67%. The “Inhibition 1” value ([5]; 5-HT7A, replicate 1) was 34.17%, the “Inhibition 2” value ([5]; 5-HT7A, replicate 2) was 16.81% and the “Inhibition 3” value ([5]; 5-HT7A, replicate 3) was 23.63%. For the same molecule, the “Inhibition 4” value ([5]; 5-HT7A, replicate 4) was 40.05%, the Mean % ([6]; D4, mean inhibition) was 5.93% and the “Inhibition 1” value ([6]; D4, replicate 1) was 5.07%. For the same molecule, the “Inhibition 2” value ([6]; D4, replicate 2) was 3.44%, the “Inhibition 3” value ([6]; D4, replicate 3) was 0% and the “Inhibition 4” value ([6]; D4, replicate 4) was 15.2%. The Mean % [7] was -16.74%, the “Inhibition 1” value [7] was -3.12% and the “Inhibition 2” value [7] was -11.73%. For the same molecule, the “Inhibition 3” value [7] was -19.51%, the “Inhibition 4” value [7] was -32.59% and the “Reported as cell active (<10 μM)” value (cellular system) was “Y (Published data supports that the compound is active in a cellular system when dosed at 10 μM (Y/N))”.
